# Patent US8962322B2, “Enhancers of induced pluripotent stem cell reprogramming” (City of Hope, priority 2012, dated 2015)
# How the values were obtained:
# [1] = target: T1, luciferase (Photinus pyralis, UniProt P08659); details: read-out: EC50 of luciferase inhibition; at 40° C., loss of enzymatic activity as measurement; cited from earlier work
# [2] = system: Sox2; assay: RT-PCR of Sox2 mRNA in treated MEFs; type: cell-based, mouse; details: versus vehicle
# Description: MEFs were treated with vehicle control or OAC 1 to test whether OAC 1 activates endogenous Oct4 and Nanog gene transcription. […] Oct4, Sox2, and Nanog are central to the transcriptional regulatory hierarchy for ESC pluripotency, forming the core transcriptional regulatory circuitry in ESCs (37). […] OAC1 activated Sox2 mRNA expression, along with Oct4 and Nanog (FIG. 61).
# RT-PCR analysis: Total RNA was purified with Trizol reagent (Invitrogen). Reverse transcription was performed with 1 μg of RNA using Omniscript® Reverse Transcription Kit (Qiagen). Quantitative PCR was performed using iTaq SYBR Green Supermix with Rox (Bio-rad) in Applied Biosystem Step one plus real-time PCR system. […]
# [3] = system: β-catenin-responsive reporter gene Topflash; assay: Topflash luciferase reporter assay in CV1 cells (Wnt signaling); type: cell-based; details: 1 μM OAC1 or 2 μM BIO, 48 hr
# Description: Whether OAC1 regulates major signaling pathways that are critical for embryonic stem cell pluripotency was investigated. […] CV1 cells were transfected with the β-catenin-responsive reporter gene Topflash, and the transfected cells were treated with vehicle control or OAC1 (FIG. 6C). The glycogen synthase kinase 3β (GSK3β) inhibitor BIO was included as a positive control (42).
# AzaC, 25 μg/ml Vc, 10 nM Am580, 5 μM tranylcypromine, and 0.5 mM VPA. Luciferase reporter assays were performed as described (51) 24 hr after compound treatment or at indicated time points. For Topflash reporter assays, 0.2 μg β-catenin-responsive Topflash reporter gene plasmid was introduced into CV1 cells using trasfection (Bio-Rad). Compounds were added 6 hr after transfection. Luciferase activity was measured 48 hr after compound treatment using the Glo Luciferase Assay System (Promega).
# [4] = target: T1, luciferase; assay: inhibition of luciferase activity at 1 μM (applicant's observation)
# Excerpt: OAC1 and related analogs belong to a structural class of 5-substituted pyrrolo[2,3-b]pyridine- and indole-based benzamides. Very little is reported about their biological activities. […] However, in a different assay called ATLAS (any target ligand affinity screen), no inhibition was detected (49).
# [5] = target: T1, luciferase; details: cited from earlier work
# T1 sequence (P08659 whole entry): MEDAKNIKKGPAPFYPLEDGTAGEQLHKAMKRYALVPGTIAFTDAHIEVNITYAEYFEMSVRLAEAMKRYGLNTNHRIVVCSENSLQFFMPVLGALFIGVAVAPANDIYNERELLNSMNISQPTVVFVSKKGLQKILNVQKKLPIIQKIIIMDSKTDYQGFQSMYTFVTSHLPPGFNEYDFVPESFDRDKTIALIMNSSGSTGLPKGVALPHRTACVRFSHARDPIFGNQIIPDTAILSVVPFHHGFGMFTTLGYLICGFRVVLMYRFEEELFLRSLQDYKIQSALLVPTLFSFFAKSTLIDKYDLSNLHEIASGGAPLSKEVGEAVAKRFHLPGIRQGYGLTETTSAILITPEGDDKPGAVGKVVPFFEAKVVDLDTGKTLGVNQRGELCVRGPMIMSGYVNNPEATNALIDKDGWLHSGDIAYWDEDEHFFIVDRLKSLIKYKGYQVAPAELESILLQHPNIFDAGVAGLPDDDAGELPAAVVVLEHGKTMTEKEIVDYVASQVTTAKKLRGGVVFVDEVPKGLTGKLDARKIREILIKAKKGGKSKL
smiles,measurement,setting,value
"O=C(Nc1cc2cc[nH]c2cn1)c1ccccc1 [OAC1, N-(1H-6-azaindol-5-yl)benzamide]",EC50,[1],6.37 µM
same,Sox2 mRNA expression,[2],activated
same,effect on Topflash reporter activity,[3],no effect
same,inhibition of luciferase activity,[4],no inhibition
same,inhibition in ATLAS assay,[5],no inhibition
